The subject of test [1] is Streptococcus pneumoniae. The experiment in a line: Antimicrobial activity against Streptococcus pneumoniae MTCC 1936 for 24 hrs by microdilution method. The format is functional. The note with it: MTCC 1936, 24 h. On the technique in general: In broth dilution the organism is exposed to a series of concentrations in liquid medium.
The test system of test [2] is Clostridium tetani. As to the kind of experiment: Antimicrobial activity against Clostridium tetani MTCC 449 for 24 hrs by microdilution method. The format is functional. The note with it: MTCC 449, 24 h.
Test [3] deals with Bacillus subtilis. As to the kind of experiment: Antimicrobial activity against Bacillus subtilis MTCC 441 for 24 hrs by microdilution method. The format is functional. The note with it: MTCC 441, 24 h.
The test system of test [4] is Salmonella typhi. As to the kind of experiment: Antimicrobial activity against Salmonella typhi MTCC 98 for 24 hrs by microdilution method. The format is functional, Salmonella enterica subsp. enterica serovar Typhi. The note with it: Salmonella enterica, MTCC 98, 24 h.
Test [5] has as its system Vibrio cholerae. The experiment in a line: Antimicrobial activity against Vibrio cholerae MTCC 3906 for 24 hrs by microdilution method. The format is functional. The note with it: MTCC 3906, 24 h.
Test [6] deals with Escherichia coli. As to the kind of experiment: Antimicrobial activity against Escherichia coli MTCC 443 for 24 hrs by microdilution method. It counts as functional. The conditions noted are these: MTCC 443, 24 h.
Test [7] relates to Aspergillus fumigatus. As to the kind of experiment: Antifungal activity against Aspergillus fumigatus MTCC 3008 for 48 hrs by microdilution method. The note with it: MTCC 3008, 48 h. It counts as functional.
In test [8] the test system is Candida albicans. As to the kind of experiment: Antifungal activity against Candida albicans MTCC 227 for 48 hrs by microdilution method. It counts as functional. The conditions noted are these: MTCC 227, 48 h.

Values after ≈ are worked out from the molar mass of the structure shown.

The term MIC denotes the smallest concentration in the dilution series that meets the test's criterion for growth inhibition. With `COc1ccc2nc(N3CCOCC3)c(C3C(C#N)=C(N)Oc4[nH]nc(C)c43)cc2c1` (stereo not given), the MIC was determined as 200 mg/L (≈ 478 µM) in test [1]; 250 mg/L (≈ 597 µM) in test [2]; 200 mg/L (≈ 478 µM) in test [3]; 250 mg/L (≈ 597 µM) in test [4]; 250 mg/L (≈ 597 µM) in test [5]; 250 mg/L (≈ 597 µM) in test [6]. Besides, the MIC in test [7] amounted to 500 mg/L (≈ 1190 µM); in test [8], 250 mg/L (≈ 597 µM).

`Cc1ccc2nc(N3CCOCC3)c(C3C(C#N)=C(N)Oc4c3c(=O)oc3ccccc43)cc2c1` (stereo not given): the MIC in test [1] is 500 mg/L (≈ 1070 µM); in test [2] it was 250 mg/L (≈ 536 µM); in test [3], 500 mg/L (≈ 1070 µM); in test [4], 250 mg/L (≈ 536 µM); in test [5] it was 12.5 mg/L (≈ 26.8 µM); in test [6], 250 mg/L (≈ 536 µM). Besides, the MIC in test [7] and in test [8] was 500 mg/L (≈ 1070 µM) in each case.

For `COc1ccc2nc(N3CCOCC3)c(C3C(C#N)=C(N)OC4=C3C(=O)CCC4)cc2c1` (stereo not given), the MIC worked out at 250 mg/L (≈ 578 µM) in test [1]; 500 mg/L (≈ 1160 µM) in test [2]; 250 mg/L (≈ 578 µM) in test [3]; 200 mg/L (≈ 462 µM) in test [4]; 250 mg/L (≈ 578 µM) in test [5]; 200 mg/L (≈ 462 µM) in test [6]. In addition, the MIC came to 1000 mg/L (≈ 2310 µM) in test [7] and 500 mg/L (≈ 1160 µM) in test [8].

Consider `N#CC1=C(N)OC2=C(C(=O)CCC2)C1c1cc2ccccc2nc1N1CCOCC1` (stereo not given), for which the MIC in test [1] is 100 mg/L (≈ 248 µM); in test [2] it was 250 mg/L (≈ 621 µM); in test [3], 100 mg/L (≈ 248 µM); in test [4] it was 250 mg/L (≈ 621 µM); in test [5], 250 mg/L (≈ 621 µM); in test [6] it was 250 mg/L (≈ 621 µM). Besides, the MIC in test [7] was over 1000 mg/L; in test [8] it was 1000 mg/L (≈ 2480 µM).

For `COc1ccc2nc(N3CCOCC3)c(C3C(C#N)=C(N)Oc4cc(O)ccc43)cc2c1` (stereo not given), the minimal inhibitory concentration (MIC) was determined as 12.5 mg/L (≈ 29 µM) in test [1]; 250 mg/L (≈ 581 µM) in test [2]; 200 mg/L (≈ 465 µM) in test [3]; 250 mg/L (≈ 581 µM) in test [4]; 250 mg/L (≈ 581 µM) in test [5]; 250 mg/L (≈ 581 µM) in test [6]. Also, the MIC in test [7] and in test [8] was 500 mg/L (≈ 1160 µM) each time.

Turning to `Cc1ccc2nc(N3CCOCC3)c(C3C(C#N)=C(N)Oc4cc(O)ccc43)cc2c1` (stereo not given), the MIC in test [1] amounted to 500 mg/L (≈ 1210 µM); in test [2] it was 200 mg/L (≈ 483 µM); in test [3], 500 mg/L (≈ 1210 µM); in test [4], 200 mg/L (≈ 483 µM); in test [5], 200 mg/L (≈ 483 µM); in test [6], 200 mg/L (≈ 483 µM). In addition, the MIC in test [7] and in test [8] was over 1000 mg/L in each case.

Take `N#CC1=C(N)Oc2c(ccc3ccccc23)C1c1cc2ccccc2nc1N1CCOCC1` (stereo not given): the MIC in test [1] was 500 mg/L (≈ 1150 µM); in test [2] it was 250 mg/L (≈ 575 µM); in test [3], 250 mg/L (≈ 575 µM); in test [4], 500 mg/L (≈ 1150 µM); in test [5], 500 mg/L (≈ 1150 µM); in test [6] it was 500 mg/L (≈ 1150 µM). Besides, the MIC in test [7] is over 1000 mg/L; in test [8], 500 mg/L (≈ 1150 µM).

Take `COc1ccc2nc(N3CCOCC3)c(C3C(C#N)=C(N)Oc4cc(C)oc(=O)c43)cc2c1` (stereo not given): the MIC in test [1] was found to be 250 mg/L (≈ 560 µM); in test [2], 250 mg/L (≈ 560 µM); in test [3], 200 mg/L (≈ 448 µM); in test [4] it was 250 mg/L (≈ 560 µM); in test [5] it was 250 mg/L (≈ 560 µM); in test [6], 200 mg/L (≈ 448 µM). Moreover, the MIC in test [7] was 1000 mg/L (≈ 2240 µM); in test [8], 250 mg/L (≈ 560 µM).

`Cc1cc2c(c(=O)o1)C(c1cc3ccccc3nc1N1CCOCC1)C(C#N)=C(N)O2` (stereo not given): the minimal inhibitory concentration (MIC) stood at 200 mg/L (≈ 480 µM) in test [1]; 100 mg/L (≈ 240 µM) in test [2]; 200 mg/L (≈ 480 µM) in test [3]; 100 mg/L (≈ 240 µM) in test [4]; 100 mg/L (≈ 240 µM) in test [5]; 62.5 mg/L (≈ 150 µM) in test [6]. Further, the MIC in test [7] was determined as 200 mg/L (≈ 480 µM); in test [8] it was 1000 mg/L (≈ 2400 µM).

Take `CCn1cc(C(=O)O)c(=O)c2cc(F)c(N3CCNCC3)cc21` [NORFLOXACIN]: the MIC in test [1] is 10 mg/L (≈ 31.3 µM); in test [2], 50 mg/L (≈ 157 µM); in test [3], 100 mg/L (≈ 313 µM); in test [4] it was 10 mg/L (≈ 31.3 µM); in test [5] it was 10 mg/L (≈ 31.3 µM); in test [6], 10 mg/L (≈ 31.3 µM).

`O=C(N[C@H](CO)[C@H](O)c1ccc([N+](=O)[O-])cc1)C(Cl)Cl` [CHLORAMPHENICOL]: the MIC in test [1], in test [2], in test [3], in test [4], in test [5] and in test [6] was 50 mg/L (≈ 155 µM) in each case.

Consider `Cc1ccc2nc(N3CCOCC3)c(C3C(C#N)=C(N)Oc4cc(C)oc(=O)c43)cc2c1` (stereo not given), for which the MIC amounted to 500 mg/L (≈ 1160 µM) in test [1]; 200 mg/L (≈ 465 µM) in test [2]; 500 mg/L (≈ 1160 µM) in test [3]; 200 mg/L (≈ 465 µM) in test [4]; 200 mg/L (≈ 465 µM) in test [5]; 100 mg/L (≈ 232 µM) in test [6]. Besides, the values for the MIC in test [7] and in test [8] were 200 mg/L (≈ 465 µM) and 1000 mg/L (≈ 2320 µM), respectively.

For `Cc1ccc2nc(N3CCOCC3)c(C3C(C#N)=C(N)OC4=C3C(=O)CCC4)cc2c1` (stereo not given), the MIC in test [1] is 100 mg/L (≈ 240 µM); in test [2], 200 mg/L (≈ 480 µM); in test [3], 200 mg/L (≈ 480 µM); in test [4] it was 200 mg/L (≈ 480 µM); in test [5], 200 mg/L (≈ 480 µM); in test [6], 200 mg/L (≈ 480 µM). Besides, the figures for the MIC in test [7] and in test [8] were over 1000 mg/L and 1000 mg/L (≈ 2400 µM), respectively.

The values are drawn from ChEMBL document CHEMBL1833797, “Microwave assisted synthesis and antimicrobial evaluation of new fused pyran derivatives bearing 2-morpholinoquinoline nucleus” (2011).
